Measurements: publication PMC9951321
Values after ≈ are worked out from the molar mass of the structure shown. Where a SMILES comes first, the peptide text is derived from it.

What was measured:
E. coli [1] = assay: PGN integrity assay (susceptibility to lysozyme-mediated lysis); details: cells grown with 0.625 µmol L^−1 (1/4 × MIC); 1 mg mL^−1 lysozyme, within 20 min incubation, 25 °C
E. coli [2] = assay: K+ out-diffusion, atomic absorption spectrometry; details: 4 × MIC, 1 h; untreated 13.47 µg mL^−1; n = 3
[3] = tested on: Enterobacter cloacae ATCC 13047; assay: MIC, broth micro-dilution; format: cell-based
[4] = tested on: Klebsiella pneumoniae ATCC 13883; assay: MIC, broth micro-dilution; format: cell-based
[5] = tested on: Salmonella Typhimurium ATCC 14028; assay: MIC, broth micro-dilution; format: cell-based; details: 24 h
[6] = tested on: Staphylococcus aureus MRSA ATCC 43300; assay: MIC, broth micro-dilution; format: cell-based; details: 24 h
Escherichia coli MDR = assay: MIC, broth micro-dilution; format: cell-based; details: for MIC: 24 h; for MIC against E. coli MDR relative to wild-type E. coli strains: fold higher than those of wild-type E. coli strains
[7] = tested on: Pseudomonas aeruginosa ATCC 10145; assay: MIC, broth micro-dilution; format: cell-based
[8] = tested on: Acinetobacter baumannii ATCC 17978; assay: MIC, broth micro-dilution; format: cell-based
[9] = tested on: Escherichia coli ATCC 8739; assay: MIC, broth micro-dilution; format: cell-based
[10] = tested on: Staphylococcus aureus ATCC 25923; assay: MIC, broth micro-dilution; format: cell-based
[11] = tested on: Enterococcus faecium ATCC 19434; assay: MIC, broth micro-dilution; format: cell-based

Molecule: CC[C@H](C)[C@H](NC(=O)[C@@H](N)CCCNC(=N)N)C(=O)N[C@@H](CCCCN)C(=O)N[C@H](C(=O)N[C@@H](C)C(=O)N[C@H](C(=O)N[C@@H](Cc1c[nH]c2ccccc12)C(=O)N[C@@H](CCCNC(=N)N)C(=O)N[C@@H](CC(C)C)C(=O)N[C@@H](C)C(=O)N[C@@H](CC(C)C)C(=O)N[C@@H](CCCNC(=N)N)C(=O)N[C@@H](Cc1c[nH]c2ccccc12)C(=O)N[C@@H](CC(C)C)C(=O)N[C@@H](CCCCN)C(=O)N[C@@H](CC(C)C)C(=O)O)[C@@H](C)O)[C@@H](C)O [KTA] (H-RIKTATWRLALRWLKL-OH)
- Reduction of OD600 nm of treated cells with lysozyme (E. coli [1]): 17.2%
- Extracellular K^+ content (E. coli [2]): 18.92 µg/mL

Molecule: CC[C@H](C)[C@H](NC(=O)[C@@H](N)CCCNC(=N)N)C(=O)N[C@@H](CCCCN)C(=O)N[C@H](C(=O)N[C@@H](CCCNC(=N)N)C(=O)N[C@H](C(=O)N[C@@H](Cc1c[nH]c2ccccc12)C(=O)N[C@@H](CCCNC(=N)N)C(=O)N[C@@H](CC(C)C)C(=O)N[C@@H](C)C(=O)N[C@@H](CC(C)C)C(=O)N[C@@H](CCCNC(=N)N)C(=O)N[C@@H](Cc1c[nH]c2ccccc12)C(=O)N[C@@H](CC(C)C)C(=O)N[C@@H](CCCCN)C(=O)N[C@@H](CC(C)C)C(=O)O)[C@@H](C)O)[C@@H](C)O [KTR] (H-RIKTRTWRLALRWLKL-OH)
- Extracellular K^+ content (E. coli [2]): 21.53 µg/mL

Molecule: NC[C@H]1O[C@H](O[C@H]2[C@H](O)[C@@H](O[C@H]3O[C@H](CO)[C@@H](O)[C@H](N)[C@H]3O)[C@H](N)C[C@@H]2N)[C@H](N)C[C@@H]1O [Tob, tobramycin]
- MIC ([3]; Enterobacter cloacae, ATCC13047, 24 h): 2.1 µM (≈ 0.982 µg/mL)
- MIC ([4]; Klebsiella pneumoniae, ATCC13883, 24 h): 2.1 µM (≈ 0.982 µg/mL)
- MIC ([5]; Salmonella enterica): 17.1 µM (≈ 7.99 µg/mL)
- MIC ([6]; Staphylococcus aureus): 548 µM (≈ 256 µg/mL)
- MIC (Escherichia coli MDR; Escherichia coli): 548 µM (≈ 256 µg/mL)
- MIC against E. coli MDR relative to wild-type E. coli strains (Escherichia coli MDR): at least 128 fold
- MIC ([7]; Pseudomonas aeruginosa, ATCC10145, 24 h): 4.3 µM (≈ 2.01 µg/mL)
- MIC ([8]; Acinetobacter baumannii, ATCC17978, 24 h): 2.1 µM (≈ 0.982 µg/mL)
- MIC ([9]; Escherichia coli, ATCC8739, 24 h): 4.3 µM (≈ 2.01 µg/mL)
- MIC ([10]; Staphylococcus aureus, ATCC25923, 24 h): 17.1 µM (≈ 7.99 µg/mL)
- MIC ([11]; Enterococcus faecium, ATCC19434, 24 h): 274 µM (≈ 128 µg/mL)

Molecule: colistin
- MIC ([3]; Enterobacter cloacae ATCC 13047, broth micro-dilution in MHB, 37 °C, 24 h, triplicate): 204.2 µM
- MIC ([4]; Klebsiella pneumoniae ATCC 13883, broth micro-dilution in MHB, 37 °C, 24 h, triplicate): 12.8 µM
- MIC ([5]; Salmonella Typhimurium ATCC 14028, broth micro-dilution in MHB, 37 °C, triplicate): 6.4 µM
- MIC ([6]; Staphylococcus aureus MRSA ATCC 43300, broth micro-dilution in MHB, 37 °C, triplicate): 51.1 µM
- MIC (Escherichia coli MDR; Escherichia coli MDR, multi-drug resistant clinical isolate, broth micro-dilution in MHB, 37 °C, triplicate): 102.1 µM
- MIC against E. coli MDR relative to wild-type E. coli strains (Escherichia coli MDR): ≥ 32 fold
- MIC ([7]; Pseudomonas aeruginosa ATCC 10145, broth micro-dilution in MHB, 37 °C, 24 h, triplicate): 6.4 µM
- MIC ([8]; Acinetobacter baumannii ATCC 17978, broth micro-dilution in MHB, 37 °C, 24 h, triplicate): 1.6 µM
- MIC ([9]; Escherichia coli ATCC 8739, broth micro-dilution in MHB, 37 °C, 24 h, triplicate): 3.2 µM
- MIC ([10]; Staphylococcus aureus ATCC 25923, broth micro-dilution in MHB, 37 °C, 24 h, triplicate): 12.8 µM
- MIC ([11]; Enterococcus faecium ATCC 19434, broth micro-dilution in MHB, 37 °C, 24 h, triplicate): 204.2 µM
